From patent publication US11953435B2, “Zinc-responsive fluorophores” (Northwestern University, priority 2019, dated 2024)
Entries after “also recorded” stand apart in the source; their conditions may differ.

Test system: C. elegans
Experiment: Confocal imaging of zinc in C. elegans worms
Type: in vivo
Description: [formula] [formula] where r(t) is the anisotropy, P(t) is the polarization, Ivv and Ivh are intensities with polarization in the vertical plane and the excitation in the vertical and horizontal planes respectively, Ihv and Ihh are intensities with polarization in the horizontal plane and the excitation in the vertical and horizontal planes respectively, and G is a g-factor that corrects for instrument sensitivity in the horizontal and vertical planes. Metal content of NMR samples. Inductively coupled plasma mass spectrometry (ICP-MS) was performed on a Thermo iCAP Q ICP-MS. 1 mg/mL of ZincBY-1 or ZincBY-4 in acetonitrile-d3 or acetonitrile-d3 only was evaporated overnight at 70° C. 150 μL of HNO3 was added and the samples were digested overnight at 70° C. Samples were diluted to a final nitric acid concentration of 3%. […] Only ^56Fe and ^64Zn were detected in the samples above background levels. […] Calculated spectra were broadened by Gaussians of width 0.2 eV, and red shifted by 0.64 eV to better match the experimental spectra per Momeni and Brown (Ref. B7; incorporated by reference in its entirety). […] Wildtype strain Bristol N2 was used as a control strain in fluorescence microscopy experiments. […] III; ruIs57[unc-119(+) pie-P1^promoter:GFP::tubulin] was used as a marker for cortical granules in fluorescence microscopy experiments. […]

**Q.** How did the “fluorescence pattern in stained worms” value (ZincBY-4 stained worms) turn out when `CC(=O)NCCOc1ccc2n1[B-](F)(F)[N+]1=C(N(CCN(Cc3ccccn3)Cc3ccccn3)Cc3ccccn3)C=CC1=C2c1c(C)cc(C)cc1C` [ZincBY-4, N-(2-((7-((2-(bis(pyridin-2-ylmethyl)amino)ethyl)(pyridin-2-ylmethyl)amino)-5,5-difluoro-10-mesityl-5H-5λ4,6λ4-dipyrrolo[1,2-c:2′,1′-f][1,3,2]diazaborinin-3-yl)oxy)ethyl)acetamide] was run?
**A.** Its value is “pattern of increasing fluorescence intensity as oocytes progress through the gonad”.

**Q.** What about the “spectral overlap with GFP in C. elegans” value (single excitation at 488 nm) of the same molecule?
**A.** The value was “small amount of ZincBY-4 emission detected in the 495-530 nm emission channel; also recorded: very little overlap of ZincBY-4 in the GFP detection channel”.
